Assays:
NR2B = NR2B (Rattus norvegicus (Rat), UniProt Q00960); test: NR2B rat cortical neuron calcium influx assay; assay type: cell-based; conditions: for IC50: rat cortical neurons, glutamate and glycine stimulated calcium influx
Method in brief: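 Primary cortical neurons from E18 Sprague Dawley rat embryos, cultured 2 days, were loaded with Calcium 6 dye in 1.8 mM Ca-HBSS and preincubated with compound 2 h at 37° C. Glutamate plus glycine was added and fluorescence read for 2 min as peak/baseline ratio; duplicate dose-response curves gave IC50 (μM) and maximal inhibition.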

hERG = hERG (Homo sapiens (Human), UniProt Q12809); test: hERG Qpatch assay; assay type: cell-based
hERG, sequence (Q12809 whole entry): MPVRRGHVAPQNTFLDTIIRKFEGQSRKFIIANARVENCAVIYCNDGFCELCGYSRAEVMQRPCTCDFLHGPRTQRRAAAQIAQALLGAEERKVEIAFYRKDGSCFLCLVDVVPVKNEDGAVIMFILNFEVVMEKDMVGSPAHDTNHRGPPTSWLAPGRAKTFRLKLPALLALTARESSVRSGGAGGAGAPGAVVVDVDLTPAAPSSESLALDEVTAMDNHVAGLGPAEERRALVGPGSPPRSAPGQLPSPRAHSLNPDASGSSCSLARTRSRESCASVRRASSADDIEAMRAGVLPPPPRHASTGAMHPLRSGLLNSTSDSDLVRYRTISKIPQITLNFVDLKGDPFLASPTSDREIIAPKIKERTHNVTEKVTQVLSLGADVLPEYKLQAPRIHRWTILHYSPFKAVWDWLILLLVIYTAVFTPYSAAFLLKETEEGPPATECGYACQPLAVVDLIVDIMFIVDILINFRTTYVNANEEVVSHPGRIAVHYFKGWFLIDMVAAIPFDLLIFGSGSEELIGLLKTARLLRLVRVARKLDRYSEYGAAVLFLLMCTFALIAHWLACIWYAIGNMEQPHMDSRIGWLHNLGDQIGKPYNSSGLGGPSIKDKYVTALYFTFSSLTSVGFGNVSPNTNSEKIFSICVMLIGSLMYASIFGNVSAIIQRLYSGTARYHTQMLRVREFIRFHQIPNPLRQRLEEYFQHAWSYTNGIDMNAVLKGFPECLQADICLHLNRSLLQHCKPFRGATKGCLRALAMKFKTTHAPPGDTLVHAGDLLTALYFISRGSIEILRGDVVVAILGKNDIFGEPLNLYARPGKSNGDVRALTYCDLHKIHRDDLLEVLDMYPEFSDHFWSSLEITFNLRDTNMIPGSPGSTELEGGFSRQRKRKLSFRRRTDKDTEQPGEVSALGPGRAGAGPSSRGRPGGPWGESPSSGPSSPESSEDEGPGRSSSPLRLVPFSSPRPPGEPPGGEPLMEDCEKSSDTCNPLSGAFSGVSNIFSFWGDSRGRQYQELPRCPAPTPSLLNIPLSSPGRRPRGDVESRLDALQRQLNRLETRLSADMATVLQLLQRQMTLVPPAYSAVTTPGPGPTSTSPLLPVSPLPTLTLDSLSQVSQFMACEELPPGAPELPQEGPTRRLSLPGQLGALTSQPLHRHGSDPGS
Procedure: Example 3. hERG Qpatch Assay Protocol
This assay was performed by the method described in Skepper et al., J. Med. Chem. 2020, 63, 7773-7816:
hERG expressing cell lines were produced in-house at Novartis using CHO-K1 T-Rex inducible plasmid system (Invitrogen) as described previously (Cao et al., Assay Drug Dev. Technol. 2010, 8, 766-780). Cell lines were maintained in Ham's F12 nutrient mixture containing 10% FBS, blasticidin ([…]; InvivoGen), hygromycin B ([…]; InvivoGen), Zeocin ([…], Invitrogen), and neomycin ([…], Invitrogen) using SelecT automated cell culture system (TAP Biosystems, Cambridge, U.K.). hERG and hCav1.2 channels expression was induced with tetracycline (0.25-1 μg/mL, Invitrogen) at least 24 h prior to the experiment.
hERG currents were recorded using the Qpatch automated patch clamp systems (Sophion Bioscience Inc., North Brunswick, NJ) in the whole (single) cell configuration. hERG expressing CHO-K1 cells were harvested with Detachin (Genlantis) and stored in the modified serum-free SFM-2 media (Life Technologies) at room temperature. The extracellular solution contained (in mM) NaCl (145), KCl (4), MgCl2 (1), CaCl2 (2), and HEPES (10), pH 7.4, with NaOH. The intracellular solution contained KCl (135), MgCl2 (1.75), CaCl2 (5.4), EGTA (10), K2-ATP (4), and HEPES (10), pH 7.2, with KOH. After whole cell configuration was achieved, the cell was held at −90 mV, and a 0.1 s pulse to −50 mV was delivered to measure the leaking current, which was subtracted from the tail current online. Then the cell was depolarized to +20 mV for 4 s (prepulse), followed by a 4 s test pulse to −50 mV to reveal the hERG tail current. To monitor changes in the current amplitude, this voltage protocol was repeatedly applied every 20 s. Test compounds were first diluted in DMSO for six dose-response experiments and then dissolved in the extracellular solution using Freedom EVO liquid handling robotic system (Tecan, Männedorf, Switzerland). The final DMSO concentration in samples was 0.3% v/v. Amitriptyline (Sigma) was tested as a positive control. Data were analyzed using in-house developed MatLab-based program (MathWorks, Natick, MA

P-glycoprotein (P-gp) = P-glycoprotein (P-gp) (Homo sapiens (Human), UniProt P08183); test: MDCK-MDR1 permeability / efflux assay; assay type: in vitro ADME; conditions: for efflux ratio at 120 min, 10 μM: dog, MDCK-MDR1, pH 7.4, efflux ratio, read-out: MDCK-MDR1 ER
P-glycoprotein (P-gp), sequence (P08183 whole entry): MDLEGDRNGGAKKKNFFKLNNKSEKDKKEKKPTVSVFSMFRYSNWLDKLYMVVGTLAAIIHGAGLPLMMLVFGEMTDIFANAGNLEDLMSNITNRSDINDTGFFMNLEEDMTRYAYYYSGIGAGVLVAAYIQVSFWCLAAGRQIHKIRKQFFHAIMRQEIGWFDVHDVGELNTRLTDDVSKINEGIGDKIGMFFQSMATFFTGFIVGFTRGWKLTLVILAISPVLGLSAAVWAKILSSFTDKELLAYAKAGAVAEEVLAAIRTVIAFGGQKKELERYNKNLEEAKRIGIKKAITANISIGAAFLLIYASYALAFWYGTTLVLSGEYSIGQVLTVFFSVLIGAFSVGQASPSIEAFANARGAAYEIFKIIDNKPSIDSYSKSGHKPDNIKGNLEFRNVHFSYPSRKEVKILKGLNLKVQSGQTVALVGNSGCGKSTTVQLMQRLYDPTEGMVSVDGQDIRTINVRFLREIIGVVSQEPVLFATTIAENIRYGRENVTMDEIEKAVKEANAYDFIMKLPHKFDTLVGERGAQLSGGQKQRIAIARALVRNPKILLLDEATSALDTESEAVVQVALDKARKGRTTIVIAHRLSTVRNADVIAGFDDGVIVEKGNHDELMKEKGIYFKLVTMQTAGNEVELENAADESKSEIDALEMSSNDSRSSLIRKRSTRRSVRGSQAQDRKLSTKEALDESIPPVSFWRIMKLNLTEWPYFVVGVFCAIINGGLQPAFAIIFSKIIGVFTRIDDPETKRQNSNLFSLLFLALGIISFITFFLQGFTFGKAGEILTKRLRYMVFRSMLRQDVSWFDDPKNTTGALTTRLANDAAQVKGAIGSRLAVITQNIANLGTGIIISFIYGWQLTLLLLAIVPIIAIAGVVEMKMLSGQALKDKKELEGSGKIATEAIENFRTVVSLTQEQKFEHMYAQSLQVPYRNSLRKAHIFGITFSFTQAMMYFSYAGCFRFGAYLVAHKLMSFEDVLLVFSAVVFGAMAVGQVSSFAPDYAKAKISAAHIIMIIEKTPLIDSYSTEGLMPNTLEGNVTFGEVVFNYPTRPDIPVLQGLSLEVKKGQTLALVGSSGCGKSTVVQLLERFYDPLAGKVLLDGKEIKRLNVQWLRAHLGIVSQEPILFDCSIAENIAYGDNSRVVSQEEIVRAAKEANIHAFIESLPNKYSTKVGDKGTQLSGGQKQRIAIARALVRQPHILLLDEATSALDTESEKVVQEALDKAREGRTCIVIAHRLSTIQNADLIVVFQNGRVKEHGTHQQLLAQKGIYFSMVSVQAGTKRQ
Method in brief: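 MDCK-MDR1 monolayers grown 4 days on Transwells; 10 μM compound in HBSS/10 mM HEPES pH 7.4 with 0.02% BSA, run A→B and B→A for 120 min at 37 °C without shaking. Donor and receiver concentrations by LC-MS/MS; Papp and recovery calculated, efflux ratio from B→A vs A→B.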

[1] = Table 2, hERG expressing CHO-K1 cells

NR2B, sequence (Q00960 27-1482, other chains not shown): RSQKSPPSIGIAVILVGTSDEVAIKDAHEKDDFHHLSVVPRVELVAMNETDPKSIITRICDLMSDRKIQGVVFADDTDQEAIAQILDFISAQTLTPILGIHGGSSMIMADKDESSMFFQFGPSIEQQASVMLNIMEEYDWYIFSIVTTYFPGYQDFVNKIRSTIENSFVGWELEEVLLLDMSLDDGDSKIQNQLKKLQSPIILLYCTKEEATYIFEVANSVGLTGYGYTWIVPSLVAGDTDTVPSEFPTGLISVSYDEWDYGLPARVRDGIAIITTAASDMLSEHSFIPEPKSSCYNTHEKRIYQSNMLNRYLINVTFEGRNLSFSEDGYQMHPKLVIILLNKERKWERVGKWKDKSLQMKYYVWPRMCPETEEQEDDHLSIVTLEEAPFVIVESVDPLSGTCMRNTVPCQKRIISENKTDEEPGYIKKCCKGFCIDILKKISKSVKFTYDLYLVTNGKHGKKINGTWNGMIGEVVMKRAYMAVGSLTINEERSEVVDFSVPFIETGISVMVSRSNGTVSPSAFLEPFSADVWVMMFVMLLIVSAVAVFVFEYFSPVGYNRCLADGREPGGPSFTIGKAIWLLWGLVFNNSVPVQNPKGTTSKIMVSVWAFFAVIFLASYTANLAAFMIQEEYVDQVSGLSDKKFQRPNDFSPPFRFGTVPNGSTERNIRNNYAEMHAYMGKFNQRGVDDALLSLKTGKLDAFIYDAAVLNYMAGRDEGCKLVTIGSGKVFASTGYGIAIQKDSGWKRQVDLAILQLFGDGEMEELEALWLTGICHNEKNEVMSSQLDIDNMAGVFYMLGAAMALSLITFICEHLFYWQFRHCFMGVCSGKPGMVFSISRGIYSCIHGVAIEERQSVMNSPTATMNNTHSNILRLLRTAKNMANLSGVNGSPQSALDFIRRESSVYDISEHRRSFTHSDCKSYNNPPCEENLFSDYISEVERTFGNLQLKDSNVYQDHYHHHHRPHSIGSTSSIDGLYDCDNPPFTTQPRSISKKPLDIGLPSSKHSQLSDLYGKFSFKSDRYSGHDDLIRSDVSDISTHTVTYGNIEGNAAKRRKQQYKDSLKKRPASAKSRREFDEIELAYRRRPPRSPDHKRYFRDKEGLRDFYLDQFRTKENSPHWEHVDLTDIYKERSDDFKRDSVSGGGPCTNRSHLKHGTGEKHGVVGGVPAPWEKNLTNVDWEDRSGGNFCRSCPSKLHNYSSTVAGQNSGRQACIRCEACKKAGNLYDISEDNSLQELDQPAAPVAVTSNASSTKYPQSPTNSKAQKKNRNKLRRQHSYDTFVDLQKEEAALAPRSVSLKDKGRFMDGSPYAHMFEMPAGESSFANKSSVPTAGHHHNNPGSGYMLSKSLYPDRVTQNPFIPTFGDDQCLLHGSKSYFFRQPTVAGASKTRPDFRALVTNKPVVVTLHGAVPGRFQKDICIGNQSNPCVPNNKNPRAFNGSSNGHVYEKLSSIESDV

Compound | IC50 (NR2B) [nM] | efflux ratio at 120 min, 10 μM (P-glycoprotein (P-gp)) | relative potency in the NR2B rat cortical neuron calcium influx assay (NR2B; comparison within Examples 5A/5B/5C/5D) | IC50 (hERG; [1]) [nM] | IC50 (hERG; Table 3, matched pairs) [nM] | MDCK-MDR1 ER (P-glycoprotein (P-gp); efflux ratio, 10 μM, 120 min)
O=C1Nc2cc(F)c([C@@H](O)CN3C[C@H]4C[C@H](Oc5ccccc5)C[C@@]4(O)C3)cc2CO1 (single isomer, unassigned) [Example 36A] | 0.49 | 4.04 |  | 5500 |  | 
O=c1[nH]c2c(F)cc([C@H](O)CN3C[C@H]4C[C@H](Oc5ccccc5)C[C@@]4(O)C3)cc2s1 (single isomer, unassigned) [Example 42B] | 0.04 | 0.9 |  | 800 |  | 
O[C@H](CN1C[C@H]2C[C@H](Oc3ccccc3F)[C@H](O)[C@@]2(O)C1)c1cnc2[nH]ccc2c1 (single isomer, unassigned) [Example 44B] | 1190 | 7.34 |  | 15700 |  | 
O=C1CCc2cc(C(O)CN3CC4CC(Oc5ccccc5F)CC4(O)C3)ccc2N1 (stereo in doubt) [Example 5C, 6-((R)-2-((3aR,5R,6aS)-5-(2-fluorophenoxy)-3a-hydroxyhexahydrocyclopenta[c]pyrrol-2(1H)-yl)-1-hydroxyethyl)-3,4-dihydroquinolin-2(1H)-one] | 0.59 | 2.07 | more potent than Examples 5A and 5B | 6000 | 6000 | 
O[C@@H](CN1C[C@H]2C[C@H](Oc3ccc(F)cc3F)C[C@@]2(O)C1)c1ccc2[nH]ncc2c1 [Example 21] | 11 |  |  | 3600 |  | 1.94

More lines, main results first:

IC50 (NR2B) [nM] | efflux ratio at 120 min, 10 μM (P-glycoprotein (P-gp)) | relative potency in the NR2B rat cortical neuron calcium influx assay (NR2B; comparison within Examples 5A/5B/5C/5D) | Compound | IC50 (hERG; [1]) [nM] | IC50 (hERG; Table 3, matched pairs) [nM] | MDCK-MDR1 ER (P-glycoprotein (P-gp); efflux ratio, 10 μM, 120 min)
3.6 | 0.91 |  | O=C1Nc2c(F)cc([C@H](O)CN3C[C@H]4C[C@H](Oc5ccccc5)C[C@@]4(O)C3)cc2CO1 (single isomer, unassigned) [Example 33B] | 4900 |  | 
0.19 | 0.93 |  | O=c1[nH]c2c(F)cc([C@@H](O)CN3C[C@H]4C[C@H](Oc5ccccc5)C[C@@]4(O)C3)cc2s1 (single isomer, unassigned) [Example 42A] | 2200 |  | 
0.6 | 3.02 |  | O=C1CCc2cc([C@@H](O)CN3C[C@H]4C[C@H](Oc5ccccc5)C[C@@]4(O)C3)ccc2N1 [Example 1A, 6-((R)-1-hydroxy-2-((3aS,5S,6aR)-3a-hydroxy-5-phenoxyhexahydrocyclopenta[c]pyrrol-2(1H)-yl)ethyl)-3,4-dihydroquinolin-2(1H)-one] | 10700 |  | 
1.6 | 2.3 |  | O=C1CCc2cc([C@H](O)CN3C[C@H]4C[C@H](Oc5ccccc5)C[C@@]4(O)C3)ccc2N1 [Example 1B, 6-((S)-1-hydroxy-2-((3aS,5S,6aR)-3a-hydroxy-5-phenoxyhexahydrocyclopenta[c]pyrrol-2(1H)-yl)ethyl)-3,4-dihydroquinolin-2(1H)-one] | 7600 |  | 
